The values that follow come from patent publication US10611742B2, “4-oxo-4,5-dihydrothiazole derivative, preparation method and use thereof” (Institute of Pharmacology and Toxicology Academy of …, priority 2015, dated 2020).

Each structure is given as a SMILES string. Some results are limits rather than exact numbers.

What all share (format): cell-based
Data set [1] concerns enterovirus EV71 (SZ-98 strain). The data set is described as follows: anti-EV71 activity, preventive effect on RD cell (CPE inhibition). The protocol: (§1) Test principle: Vero cell, MRC-5 cell, and RD cell were used as host of virus, respectively, and samples were tested for their inhibition of cytopathic effect (CPE) caused by virus.
(§2) 1. Virus strain: enterovirus EV71 (SZ-98 strain, provided by Chinese Center for Disease Control and Prevention), Vero cell (provided by the Cell Bank of Chinese Academy of Sciences), MRC-5 cell (provided by the Cell Bank of Chinese Academy of Sciences), and RD cell (provided by the Cell Bank of Chinese Academy of Sciences), were subjected to passage culture, respectively, and stored at −80° C.
(§3) 2. Sample treatment: a test sample (Compounds 1-14 and positive control agent) was dissolved in dimethyl sulfoxide (DMSO) to prepare a stock solution, which was stored at −20° C. The stock solution was diluted with DMEM medium (Gibco Company) containing 2% fetal bovine serum (Gibco Company) to prepare a 100 μM solution before use, and was 3-fold diluted with the medium to obtain 8 diluted concentrates.
(§4) 3. Positive control agent: Con1 (pitstop2) (purchased from AmyJet Scientific Inc., Abcam), a broad-spectrum antiviral inhibitor.
(§5) 4. Test method: • 4.1 Therapeutic effect: the cells were seeded on a 96-well culture plate, and cultured in a 5% CO2, 37° C. incubator for 24 h. About 100 TCID50 enterovirus EV71 was added to each well. After adsorption at 37° C. for 1 h, the virus solution was discarded, and a drug was added at different diluted concentrates, respectively. Meanwhile, virus control and cell control were set, and cultured at 37° C. […] The virus-inhibition rate of a sample at each concentration was calculated based on the chemiluminescent value, the sample concentration was used as abscissa, and the inhibition rate was used as ordinate, and S-Curve fitting was performed by using Origin software. Half maximal inhibitory concentration (IC50) of each sample for enterovirus EV71 was calculated based on the fitting results. Median toxic concentration (TC50) was determined by the same method. […] To each well, a drug was added at a different diluted concentration, then the cells were cultured at 37° C. for 2 h, and then the drug was discarded. About 100 TCID50 enterovirus EV71 was added to each well, adsorbed at 37° C. for 1.5 h, then the virus solution was discarded, and a maintenance medium free of drug was added. Meanwhile, virus control and cell control were set, and cultured at 37° C. […] The virus-inhibition rate of a sample at each concentration was calculated, and half maximal inhibitory concentration (IC50), median toxic concentration (TC50), and selection index (SI) of each sample for enterovirus EV71 were calculated. The methods for determining and calculating them were as described in Item 4.1

The next data set deals with Vero cell. The data set is described as follows: median toxic concentration on Vero cell. As for the experimental part:
as §2, §3, §5

Data set [2] is described as follows: median toxic concentration on Vero cell. Conditions: African green monkey, Vero cells; for CC50: Table 1-1 (therapeutic effect), read-out: TC50 (the source's name); for CC50 at 2 h: Table 2-1 (preventive effect), read-out: TC50. As for the experimental part: as §2, §3, §5
The nature of data set [3]: median toxic concentration on RD cell. Conditions: human, RD cells; for CC50 at 2 h: Table 2-2 (preventive effect), read-out: TC50; for CC50: read-out: TC50 (the source's name). As for the experimental part:
as §2, §3, §5

Data set [4] concerns clathrin-mediated endocytosis of transferrin. As to the kind of experiment: inhibition of clathrin-mediated endocytosis of transferrin in HeLa cells (fluorescence microscope). Conditions: for inhibitory effect on endocytosis of transferrin (in words): 1.25 to 40 μmol/L; for inhibition at 20 µM: Homo sapiens, 20 μM compound, read-out: Inhibition rate. The protocol: 1. Experiment principle: transferrin was a key protein for clathrin-mediated endocytosis. Therefore, by determining the effect of a compound on transferrin in HeLa cell, the inhibitory effect of the compound on clathrin-mediated endocytosis could be evaluated. 2. Sample treatment: a test compound was dissolved in DMSO to prepare a stock solution, which was stored at −20° C. The stock solution was diluted with HEPES buffer (25 mm HEPES, 20 mm Glucose, 1% BSA, sterile water) to prepare a solution with an initial concentration of […] before use, and was 2-fold diluted with the buffer to obtain 6 diluted concentrations from 1.25 to 40 μmol/L. 4. Test method: HeLa cells (provided by the Cell Bank of Chinese Academy of Sciences) were seeded on a 24-well culture plate coated with 0.1 mg/ml polylysine, a serum-free medium DMEM (Gibco Company) was added at 500 μl/well, and the cells were cultured for one night. To each well, 0.5 μl a test compound at a different diluted concentration or 0.1 v/v % DMSO was added, then the pretreatment was performed for 15 min, and then 20 μg/ml alexa^568 transferrin (2 μl) (TF, SIGMA-ALDRICH Company) was added, and the incubation was carried out at 37° C. for 15 min. The resultant mixture was then washed with Live Cell Imaging Solution (LCIS, Invitrogen Company) and an acid at a low pH ([…] NaCl solution containing 0.5% acetic acid) for 30 s, respectively, followed by fixing with cold methanol, and was observed under fluorescence microscope.

The test system of data set [5] is enterovirus EV71 (SZ-98 strain). The data set is described as follows: anti-EV71 activity, therapeutic effect on MRC-5 cell (CPE inhibition, Celltiter Glo). Conditions: MRC5. As for the experimental part:
as §1, §2, §3, §4, §5
On the technique in general: ATP-based viability assays read luminescence as a measure of living cells.

Data set [6] has the same test system. As to the kind of experiment: anti-EV71 activity, preventive effect on Vero cell (CPE inhibition). As for the experimental part: as §1, §2, §3, §4, §5
The test system is the same in data set [7]. As to the kind of experiment: anti-EV71 activity, therapeutic effect on RD cell (CPE inhibition, Celltiter Glo). The protocol:
as §1, §2, §3, §4, §5

Data set [8] in a line: median toxic concentration on MRC-5 cell. Conditions: human, MRC-5 cells, Table 1-2 (therapeutic effect), read-out: TC50 (the source's name). As for the experimental part:
as §2, §3, §5

For data set [9], the system named is enterovirus EV71 (SZ-98 strain). The data set is described as follows: anti-EV71 activity, therapeutic effect on Vero cell (CPE inhibition, Celltiter Glo). As for the experimental part: as §1, §2, §3, §4, §5
[10] abbreviates: EV71 (SZ-98 strain), therapeutic effect on Vero cell, read-out: IC50.

The IC50 is the concentration that inhibits the measured activity by half. For orientation: inhibition means the change of the read-out against control, counted positive when it falls. With `CCN(CC)c1ccc(/C=C2\SC(NS(=O)(=O)c3cccc4ccccc34)=NC2=O)c(O)c1` [Compound 3, Naphthalene-1-sulfonic acid [5-(2-hydroxy-4-diethylamino-benzylidene)-4-oxo-4,5-dihydro-thiazol-2-yl] amide], the IC50 was greater than 7.41 µM in data set [1]; greater than 7.41 µM in data set [5]; greater than 7.41 µM in data set [6]; 7.41 µM in data set [7] (EV71 (SZ-98 strain)); 7.41 µM in data set [7] (Enterovirus, EV71); 5.14 µM in data set [9] (setting [10]). In addition, the 50% inhibitory concentration (IC50) in [9] (Enterovirus, EV71, Vero cell, read-out: activity (IC50)) came out at 5.14 µM. Besides, the “toxicity compared with the positive control agent (in words)” value in the data set on Vero cell was “a lower toxicity than the positive control agent”. Moreover, the CC50 in data set [2], in data set [3] and in data set [8] was 12.8 µM in each case. Further, the CC50 at 2 h in [2] and in data set [3] was 12.8 µM throughout. In data set [4], the “endocytosis of transferrin at 20 μM (in words)” value is “completely inhibited”. Besides, the “inhibitory effect on endocytosis of transferrin (in words)” value (“inhibitory effect on endocytosis” below) in data set [4] was “dose-dependent”. The inhibition at 20 µM in [4] was 100%. The “anti-EV71 activity (in words)” value in [7] was “better anti-EV71 activity”.

In the case of `O=C1N=C(NS(=O)(=O)c2cccc3ccccc23)S/C1=C\c1ccc(F)cc1Cl` [Compound 10, Naphthalene-1-sulfonic acid [5-(2-chloro-4-fluoro-benzylidene)-4-oxo-4,5-dihydro-thiazol-2-yl] amide], the 50% inhibitory concentration (IC50) in data set [1] is 5.14 µM; in data set [5] it was greater than 7.41 µM; in [6], greater than 7.41 µM; in data set [7] (EV71 (SZ-98 strain)), greater than 7.41 µM; in data set [9] (setting [10]), greater than 7.41 µM. Also, the results for the CC50 in data set [2], in data set [3] (Table 1-3 (therapeutic effect)) and in data set [8] were 10.7 µM, 15.4 µM and 12.8 µM, respectively. Besides, the CC50 at 2 h in data set [2] stood at 10.7 µM; in data set [3] it was 15.4 µM. For the same compound, the “endocytosis of transferrin at 20 μM (in words)” value in data set [4] is “completely inhibited”. Also, the “inhibitory effect on endocytosis” value in data set [4] was “dose-dependent”. Further, the inhibition at 20 µM in data set [4] came to 100%.

As to `O=C1N=C(NS(=O)(=O)c2cccc3ccccc23)S/C1=C\c1ccc(Br)cc1` [Con 1, Naphthalene-1-sulfonic acid [5-(4-bromo-benzylidene)-4-oxo-4,5-dihydro-thiazol-2-yl] amide, reference compound], the IC50 in data set [1] is 5.14 µM; in data set [5], greater than 2.47 µM; in [6], greater than 2.47 µM; in data set [7] (EV71 (SZ-98 strain)), 5.41 µM; in data set [7] (Enterovirus, EV71), 5.14 µM; in [9] (setting [10]), greater than 2.47 µM. In addition, the CC50 in data set [2] came out at 4.28 µM; in data set [3], 12.8 µM; in [8] it was 10.7 µM. Also, the CC50 at 2 h turned out to be 4.28 µM in data set [2] and 12.8 µM in data set [3]. Further, the “inhibitory effect on endocytosis” value in [4] is “dose-dependent”. Moreover, the inhibition at 20 µM in data set [4] was 50%.

On to `O=C1N=C(NS(=O)(=O)c2cccc3ccccc23)S/C1=C\c1ccc(C(=O)O)cc1` [Compound 5, Naphthalene-1-sulfonic acid [5-(4-carboxy-benzylidene)-4-oxo-4,5-dihydro-thiazol-2-yl] amide], for which the IC50 in data set [1] is 200 µM; in [5], greater than 200 µM; in [6], no less than 22.2 µM; in data set [7] (EV71 (SZ-98 strain)) it was 22.2 µM; in [9] (setting [10]) it was greater than 200 µM. The TC50 in the data set on Vero cell (Table 1-1 (therapeutic effect)) was 200 µM. For the same compound, the CC50 at 2 h in [2] is 200 µM; in [3], greater than 200 µM. The CC50 in [3] (Table 1-3 (therapeutic effect)) and in [8] was greater than 200 µM throughout. Moreover, the “anti-EV71 activity (in words)” value in data set [7] is given as “better anti-EV71 activity”.

With `O=C1N=C(NS(=O)(=O)c2cccc3ccccc23)SC1Nc1ccccc1` (stereo not shown) [Compound 13, Naphthalene-1-sulfonic acid (4-oxo-5-phenylamino-4,5-dihydro-thiazol-2-yl) amide], the IC50 in data set [1] was 7.41 µM; in [5], greater than 22.2 µM; in data set [6], greater than 22.2 µM; in data set [7] (EV71 (SZ-98 strain)), greater than 22.2 µM; in [9] (setting [10]), greater than 22.2 µM. Also, the CC50 in [2], in [3] (Table 1-3 (therapeutic effect)) and in [8] was 66.7 µM each time. Moreover, the CC50 at 2 h in data set [2] and in data set [3] was 66.7 µM throughout. For the same compound, in data set [4], the inhibition at 20 µM stood at 50%.

Consider `O=C1N=C(NS(=O)(=O)c2cccc3ccccc23)SC1C(c1ccccc1)c1ccc(Br)cc1` (stereo not shown) [Compound 14, Naphthalene-1-sulfonic acid {5-[(4-bromo-phenyl)-phenyl-methyl]-4-oxo-4,5-dihydro-thiazol-2-yl} amide], for which the IC50 in data set [1] was 22.2 µM; in data set [5] it was 15.4 µM; in data set [6], greater than 22.2 µM; in [7] (EV71 (SZ-98 strain)) it was 15.4 µM; in data set [9] (setting [10]) it was 15.4 µM. Moreover, the CC50 in data set [2] stood at 32 µM; in data set [3] (Table 1-3 (therapeutic effect)), 38.5 µM; in data set [8], 32 µM. Besides, the CC50 at 2 h in data set [2] was determined as 32 µM; in data set [3] it was 38.5 µM. Moreover, the “endocytosis of transferrin at 20 μM (in words)” value in data set [4] is “completely inhibited”. Besides, the “inhibitory effect on endocytosis” value in [4] was “dose-dependent”. The inhibition at 20 µM in data set [4] worked out at 100%. Besides, the “anti-EV71 activity (in words)” value in data set [7] is on record as “better anti-EV71 activity”.
